Legend:
[1] = molecular target: Carbonic anhydrase 1 (Homo sapiens, UniProt P00915)
Description: Inhibition of human recombinant CA1 by stopped-flow CO2 hydrase assay

[2] = molecular target: Carbonic anhydrase 9 (Homo sapiens, UniProt Q16790); assay: Inhibition of human recombinant CA9 catalytic domain by stopped-flow CO2 hydrase assay
[3] = molecular target: Matrix metalloproteinase-9 (Homo sapiens, UniProt P14780); assay: Inhibition of MMP9
[4] = molecular target: Neutrophil collagenase (Homo sapiens, UniProt P22894); assay: Inhibition of MMP8
[5] = molecular target: Matrix metalloproteinase-16 (Homo sapiens, UniProt P51512); assay: Inhibition of MMP16
Chain of Matrix metalloproteinase-16 (P51512 whole entry): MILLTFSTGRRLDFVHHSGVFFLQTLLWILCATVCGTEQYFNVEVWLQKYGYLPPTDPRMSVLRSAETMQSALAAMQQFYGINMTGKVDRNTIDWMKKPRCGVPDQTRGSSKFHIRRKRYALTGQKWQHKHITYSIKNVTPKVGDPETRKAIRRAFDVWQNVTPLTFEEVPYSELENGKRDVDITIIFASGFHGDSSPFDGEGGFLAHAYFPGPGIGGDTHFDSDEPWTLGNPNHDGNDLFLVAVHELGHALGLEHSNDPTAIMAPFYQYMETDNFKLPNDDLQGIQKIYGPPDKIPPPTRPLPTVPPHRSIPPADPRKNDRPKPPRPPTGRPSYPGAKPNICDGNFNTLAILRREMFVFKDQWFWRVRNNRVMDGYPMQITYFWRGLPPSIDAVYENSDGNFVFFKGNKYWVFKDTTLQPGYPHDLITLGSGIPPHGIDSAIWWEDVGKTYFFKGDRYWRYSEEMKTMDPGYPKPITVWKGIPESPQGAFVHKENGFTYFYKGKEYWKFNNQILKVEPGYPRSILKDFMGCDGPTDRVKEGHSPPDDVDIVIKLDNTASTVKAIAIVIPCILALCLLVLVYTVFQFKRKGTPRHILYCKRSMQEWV

[6] = molecular target: 72 kDa type IV collagenase (Homo sapiens, UniProt P08253); assay: Inhibition of human recombinant MMP2 transfected in mouse melanoma cells; assay type: cell-based
Chain of 72 kDa type IV collagenase (P08253 whole entry): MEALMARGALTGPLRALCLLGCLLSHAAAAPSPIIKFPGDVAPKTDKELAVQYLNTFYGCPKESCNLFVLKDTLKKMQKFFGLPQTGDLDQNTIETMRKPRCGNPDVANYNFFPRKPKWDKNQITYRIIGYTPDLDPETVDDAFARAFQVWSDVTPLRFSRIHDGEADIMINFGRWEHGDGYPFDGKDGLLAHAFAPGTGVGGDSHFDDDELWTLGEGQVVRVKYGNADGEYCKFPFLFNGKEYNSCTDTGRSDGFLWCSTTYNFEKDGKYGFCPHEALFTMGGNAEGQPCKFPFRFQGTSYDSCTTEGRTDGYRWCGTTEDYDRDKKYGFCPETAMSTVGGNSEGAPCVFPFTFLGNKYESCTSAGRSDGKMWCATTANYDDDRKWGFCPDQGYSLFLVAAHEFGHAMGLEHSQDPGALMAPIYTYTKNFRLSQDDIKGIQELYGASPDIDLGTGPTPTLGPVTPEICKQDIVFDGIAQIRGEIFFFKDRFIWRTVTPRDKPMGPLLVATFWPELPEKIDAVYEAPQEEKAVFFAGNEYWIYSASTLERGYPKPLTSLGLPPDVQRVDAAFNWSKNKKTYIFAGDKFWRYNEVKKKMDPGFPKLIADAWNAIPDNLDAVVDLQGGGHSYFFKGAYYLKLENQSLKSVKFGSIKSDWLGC

[7] = molecular target: Matrix metalloproteinase-14 (Homo sapiens, UniProt P50281); assay: Inhibition of MMP14
[8] = molecular target: T1, Interstitial collagenase (Homo sapiens, UniProt P03956); assay: Inhibition of MMP1
T1 sequence (P03956 whole entry): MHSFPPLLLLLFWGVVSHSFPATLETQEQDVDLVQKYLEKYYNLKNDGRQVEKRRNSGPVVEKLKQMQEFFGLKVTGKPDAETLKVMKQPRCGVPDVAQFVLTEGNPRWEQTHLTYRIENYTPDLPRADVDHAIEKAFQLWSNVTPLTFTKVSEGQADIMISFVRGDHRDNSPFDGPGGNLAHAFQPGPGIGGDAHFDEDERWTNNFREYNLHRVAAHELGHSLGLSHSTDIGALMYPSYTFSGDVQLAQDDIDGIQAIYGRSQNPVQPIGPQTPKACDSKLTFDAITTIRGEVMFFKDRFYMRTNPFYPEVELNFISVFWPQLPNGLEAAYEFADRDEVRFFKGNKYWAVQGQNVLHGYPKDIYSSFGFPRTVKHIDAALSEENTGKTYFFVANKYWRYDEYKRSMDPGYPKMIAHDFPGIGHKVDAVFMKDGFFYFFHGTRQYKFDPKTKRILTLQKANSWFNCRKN

[9] = species on record: Homo sapiens; assay: Selectivity for human recombinant CA9 to human recombinant CA2
[10] = species on record: Homo sapiens; assay: Selectivity for human recombinant CA9 to human recombinant CA1
[11] = molecular target: Collagenase 3 (Homo sapiens, UniProt P45452)
[12] = molecular target: Carbonic anhydrase 2 (Homo sapiens, UniProt P00918)
Description: Inhibition of human recombinant CA2 by stopped-flow CO2 hydrase assay

[13] = molecular target: Disintegrin and metalloproteinase domain-containing protein 17 (Homo sapiens, UniProt P78536); assay: Inhibition of TACE
Chain of Disintegrin and metalloproteinase domain-containing protein 17 (P78536 whole entry, the tested form may be a part): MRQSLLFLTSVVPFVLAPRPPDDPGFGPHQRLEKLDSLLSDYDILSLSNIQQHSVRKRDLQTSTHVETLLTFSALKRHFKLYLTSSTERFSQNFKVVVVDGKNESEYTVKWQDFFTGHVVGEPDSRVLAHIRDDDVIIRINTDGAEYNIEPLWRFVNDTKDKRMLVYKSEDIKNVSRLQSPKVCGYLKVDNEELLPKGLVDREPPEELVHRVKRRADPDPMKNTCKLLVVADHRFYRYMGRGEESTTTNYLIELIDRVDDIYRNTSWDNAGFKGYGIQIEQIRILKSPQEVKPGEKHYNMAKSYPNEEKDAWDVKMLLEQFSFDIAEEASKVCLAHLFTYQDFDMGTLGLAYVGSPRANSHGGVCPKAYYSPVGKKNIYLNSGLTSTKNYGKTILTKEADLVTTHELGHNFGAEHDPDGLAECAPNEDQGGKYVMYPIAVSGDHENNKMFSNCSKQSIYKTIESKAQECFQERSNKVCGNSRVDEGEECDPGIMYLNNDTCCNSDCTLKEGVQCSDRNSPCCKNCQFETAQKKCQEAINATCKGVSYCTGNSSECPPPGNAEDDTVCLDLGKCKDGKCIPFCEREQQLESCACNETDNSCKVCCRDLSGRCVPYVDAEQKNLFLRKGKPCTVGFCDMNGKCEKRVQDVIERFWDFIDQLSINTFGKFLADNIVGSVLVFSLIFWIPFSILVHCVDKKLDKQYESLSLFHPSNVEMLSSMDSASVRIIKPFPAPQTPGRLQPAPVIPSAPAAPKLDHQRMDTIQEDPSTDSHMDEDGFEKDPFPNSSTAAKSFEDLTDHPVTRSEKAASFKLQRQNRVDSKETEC

Chain of Carbonic anhydrase 1 (P00915 whole entry, the tested form may be a part): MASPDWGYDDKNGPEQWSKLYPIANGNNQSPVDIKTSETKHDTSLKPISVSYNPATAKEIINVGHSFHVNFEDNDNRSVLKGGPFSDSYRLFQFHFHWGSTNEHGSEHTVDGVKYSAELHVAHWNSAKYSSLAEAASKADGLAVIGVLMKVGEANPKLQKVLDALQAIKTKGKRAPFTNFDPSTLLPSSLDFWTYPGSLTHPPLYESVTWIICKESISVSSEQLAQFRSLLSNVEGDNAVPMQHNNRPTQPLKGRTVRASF
Chain of Neutrophil collagenase (P22894 whole entry): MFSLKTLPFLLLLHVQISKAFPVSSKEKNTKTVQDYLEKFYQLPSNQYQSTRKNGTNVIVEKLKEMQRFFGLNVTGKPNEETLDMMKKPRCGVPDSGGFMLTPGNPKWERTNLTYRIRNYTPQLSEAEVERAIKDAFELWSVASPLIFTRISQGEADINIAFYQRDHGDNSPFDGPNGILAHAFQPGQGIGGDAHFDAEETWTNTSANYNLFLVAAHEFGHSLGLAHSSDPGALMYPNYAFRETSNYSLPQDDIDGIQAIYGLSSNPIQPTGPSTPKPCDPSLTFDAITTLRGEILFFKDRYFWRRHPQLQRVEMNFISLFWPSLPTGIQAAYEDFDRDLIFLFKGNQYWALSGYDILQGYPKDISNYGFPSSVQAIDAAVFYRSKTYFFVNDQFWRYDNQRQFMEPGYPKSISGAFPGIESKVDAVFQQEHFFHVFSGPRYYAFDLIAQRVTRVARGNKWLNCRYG
Chain of Matrix metalloproteinase-9 (P14780 whole entry): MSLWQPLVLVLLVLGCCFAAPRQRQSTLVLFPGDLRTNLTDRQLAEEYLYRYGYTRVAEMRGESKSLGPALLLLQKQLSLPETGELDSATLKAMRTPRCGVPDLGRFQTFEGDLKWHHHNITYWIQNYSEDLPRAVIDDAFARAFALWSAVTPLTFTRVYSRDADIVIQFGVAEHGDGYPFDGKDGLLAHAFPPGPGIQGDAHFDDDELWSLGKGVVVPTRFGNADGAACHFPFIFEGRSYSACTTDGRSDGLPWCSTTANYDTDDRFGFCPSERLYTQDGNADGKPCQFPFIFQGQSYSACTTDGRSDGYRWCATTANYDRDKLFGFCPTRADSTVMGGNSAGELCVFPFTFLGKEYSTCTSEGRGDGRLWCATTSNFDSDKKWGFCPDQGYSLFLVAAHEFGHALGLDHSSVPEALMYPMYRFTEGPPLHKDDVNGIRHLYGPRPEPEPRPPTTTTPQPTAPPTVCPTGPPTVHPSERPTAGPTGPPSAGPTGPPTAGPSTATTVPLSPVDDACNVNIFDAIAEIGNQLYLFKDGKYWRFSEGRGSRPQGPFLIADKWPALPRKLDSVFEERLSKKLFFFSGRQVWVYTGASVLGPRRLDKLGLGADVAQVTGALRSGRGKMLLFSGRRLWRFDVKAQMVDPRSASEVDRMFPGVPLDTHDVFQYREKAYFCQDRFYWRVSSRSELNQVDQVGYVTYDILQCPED

Structure (SMILES) | Ki [1] | Ki [2] | IC50 [3] | IC50 [4] | IC50 [5] | IC50 [6] | IC50 [7] | IC50 [8] | Selectivity ratio [9] | Selectivity ratio [10] | IC50 [11] | Ki [12] | IC50 [13]
COc1ccc(S(=O)(=O)N(CC(=O)NO)CC(=O)NCCc2ccc(S(N)(=O)=O)cc2)cc1 | 1770 nM | 13 nM | 53.7 nM | 59 nM | 44 nM | 25.3 nM | 89.8 nM | 532 nM |  |  |  |  | 
NS(=O)(=O)c1ccc(CCNC(=O)CN(CC(=O)O)S(=O)(=O)c2ccc(Oc3ccccc3)cc2)cc1 | 3430 nM | 6.4 nM |  | 4360 nM |  | 2230 nM | 8950 nM |  |  |  |  |  | 
NS(=O)(=O)c1ccc(CCNC(=O)CN(CC(=O)O)S(=O)(=O)c2ccc(-c3ccccc3)cc2)cc1 | 116 nM | 3.8 nM |  | 8200 nM |  | 5120 nM | 33900 nM |  |  |  |  |  | 
COc1ccc(S(=O)(=O)N(CC(=O)O)[C@@H](C(=O)NO)C(C)C)cc1 |  |  | 62 nM | 29.2 nM |  | 145 nM | 353 nM | 235 nM | 1.3 | 7.9 |  |  | 
CC(C)[C@H](C(=O)NO)N(CC(=O)NCCc1ccc(S(N)(=O)=O)cc1)S(=O)(=O)c1ccc(Oc2ccccc2)cc1 | 730 nM | 3.3 nM | 0.21 nM | 0.29 nM | 0.31 nM | 0.35 nM | 0.32 nM | 7.8 nM | 1.3 |  | 0.12 nM | 4.2 nM | 55 nM
NS(=O)(=O)c1ccc(CCNC(=O)CN(CC(=O)NO)S(=O)(=O)c2ccc(-c3ccccc3)cc2)cc1 |  |  | 66 nM | 35 nM | 186 nM | 16.2 nM | 260 nM | 542 nM |  |  |  |  | 
O=C(O)CN(CC(=O)NO)S(=O)(=O)c1ccc(Oc2ccccc2)cc1 |  |  | 3.2 nM | 3.7 nM | 11.4 nM | 1.2 nM | 14 nM | 1530 nM | 1.3 | 7.9 | 1.6 nM |  | 
CC(C)[C@H](C(=O)NO)N(CC(=O)O)S(=O)(=O)c1ccc(-c2ccccc2)cc1 |  |  | 27.7 nM | 4.3 nM |  | 24.7 nM | 306 nM | 236 nM | 1.3 | 7.9 |  |  | 
CC(C)[C@H](C(=O)NO)N(CC(=O)O)S(=O)(=O)c1ccc(Oc2ccccc2)cc1 |  |  | 0.77 nM | 0.4 nM | 1.56 nM | 0.5 nM | 3.9 nM | 59 nM | 1.3 | 7.9 | 0.33 nM |  | 2290 nM
NS(=O)(=O)c1ccc(CCNC(=O)CN(CC(=O)NO)S(=O)(=O)c2ccc(Oc3ccccc3)cc2)cc1 |  |  | 0.51 nM | 0.74 nM | 1 nM | 1.57 nM | 2.1 nM | 143 nM |  |  |  |  | 
COc1ccc(S(=O)(=O)N(CC(=O)O)CC(=O)NO)cc1 |  |  | 322 nM | 1010 nM | 996 nM | 193 nM | 1690 nM | 6770 nM |  |  |  |  | 
NS(=O)(=O)c1ccc(CCNC(=O)CN(CC(=O)NO)Cc2ccccc2)cc1 | 2340 nM |  | > 300000 nM |  |  | > 100000 nM | > 100000 nM |  |  |  |  |  | 
COc1ccc(S(=O)(=O)N(Cc2cccnc2)[C@@H](C(=O)NO)C(C)C)cc1 [CGS-27023A] |  |  |  |  | 6.8 nM |  |  |  |  |  |  |  | 

Reference: ChEMBL document CHEMBL1151743, “Dual inhibitors of matrix metalloproteinases and carbonic anhydrases: iminodiacetyl-based hydroxamate-benzenesulfonamide conjugates” (J Med Chem, 2008)
